Measured values published in patent EP0339193A1, “Peptide ligands for bombesin receptors” (FARMITALIA CARLO ERBA S.r.l., priority 1988, dated 1989).
Where a name gives a salt, the structure may show the parent alone. Numbered stars: 1 amine (or outer) side, 2 acyl side, 3 side chain; on linkers, the order of the positions; unused ones are H or OH. Square brackets hold non-standard residues; d marks the D form. Ends that are not written are not given here. Peptide text beside a SMILES is read from it. * marks the point of attachment. His(Dnp) = O=C([C@H](Cc1cn(-c2ccc([N+](=O)[O-])cc2[N+](=O)[O-])cn1)N[*:1])[*:2]; Dnp = O=[N+]([O-])c1ccc(*)c([N+](=O)[O-])c1; Boc = CC(C)(C)OC(=O)*; NHPentyl = CCCCCN*

Key:
[1] = target: T1, bombesin receptors (Mus musculus, UniProt P21729); assay: Binding affinity for the bombesin receptors on Swiss 3T3 fibroblasts; settings: binding affinity on mouse Swiss 3T3 fibroblasts; for IC50: read-out: ID₅₀
T1 construct: has been determined on Swiss 3T3 fibroblasts; endogenous in cells; host or cells: mouse Swiss 3T3 fibroblasts
T1 sequence (P21729 whole entry): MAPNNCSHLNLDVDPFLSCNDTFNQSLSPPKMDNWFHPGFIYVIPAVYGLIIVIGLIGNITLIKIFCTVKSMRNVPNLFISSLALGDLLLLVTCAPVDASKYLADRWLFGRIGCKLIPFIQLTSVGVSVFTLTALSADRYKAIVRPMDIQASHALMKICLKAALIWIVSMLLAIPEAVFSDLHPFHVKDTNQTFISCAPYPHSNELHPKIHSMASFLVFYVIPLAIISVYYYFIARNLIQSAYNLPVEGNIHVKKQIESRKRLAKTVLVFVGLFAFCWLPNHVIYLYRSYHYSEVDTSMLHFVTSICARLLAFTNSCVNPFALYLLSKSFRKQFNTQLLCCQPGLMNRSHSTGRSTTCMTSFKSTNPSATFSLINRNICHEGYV
Description: The binding affinity of the compounds of the present invention for the bombesin receptors has been determined on Swiss 3T3 fibroblasts (I. Zachary and E. Rozengurt (1985) Proc. Natl. Acad. Sci. USA, 82, 7616-7620) (Table 1).

[2] = test system: rat grooming behaviour stimulated by bombesin; assay: Grooming behaviour in the rat after i.c.v. administration (inhibition of bombesin-stimulated grooming); assay type: in vivo
Description: The antagonistic activity has been evaluated both in vitro and in vivo; in vitro, as inhibition of the bombesin-induced DNA synthesis in Swiss 3T3 cells (A.N. Corps et al. (1985) Biochem. J., 231, 781-785) (Table 2) and rat urinary bladder contraction (M. Broccardo et al. (1975) Br. J.Pharmac., 55, 221-227) (Table 3); in vivo, by i.c.v. administration, as inhibition of the rat grooming behaviour stimulated by bombesin (A. Cowan et al. (1985) Life Sciences, 37, 135-145) (Table 4).

Compound | IC50 [1] | ID₅₀ [1] | other results
CSCC[C@H](NC(=O)[C@H](CC(C)C)NC(=O)[C@H](Cc1c[nH]cn1)NC(=O)CNC(=O)[C@@H](NC(=O)[C@H](C)NC(=O)[C@H](Cc1c[nH]c2ccccc12)NC(=O)[C@H](CCC(N)=O)NC(=O)[C@@H](N)CC(N)=O)C(C)C)C(N)=O [BBS(6-14)nonapeptide, reference compound] | 9.4 ± 3.1 nM | – | –
CSCC[C@H](NC(=O)[C@H](CC(C)C)NC(=O)[C@@H](Cc1ccccc1)NC(=O)CNC(=O)[C@@H](NC(=O)[C@H](C)NC(=O)[C@H](Cc1c[nH]c2ccccc12)NC(=O)[C@H](CCC(N)=O)NC(=O)[C@@H](NC(=O)OC(C)(C)C)[C@@H](C)O)C(C)C)C(N)=O [XVI, Boc-Thr-Gln-Trp-Ala-Val-Gly-phe-Leu-Met-NH₂] (Boc-TQWAVG[dF]LM-NH2) | 19500 nM | – | –
CSCC[C@H](NC(=O)[C@H](CC(C)C)NC(=O)[C@@H](Cc1ccccc1)NC(=O)CNC(=O)[C@@H](NC(=O)[C@H](C)NC(=O)[C@H](Cc1c[nH]c2ccccc12)NC(=O)[C@H](CCC(N)=O)NC(=O)[C@@H](N)[C@@H](C)O)C(C)C)C(N)=O [XVII, HCl.H-Thr-Gln-Trp-Ala-Val-Gly-phe-Leu-Met-NH₂] (H-TQWAVG[dF]LM-NH2) | 32500 nM | – | –
CSCC[C@H](NC(=O)[C@H](CC(C)C)NC(=O)CNC(=O)[C@@H](NC(=O)[C@H](C)NC(=O)[C@H](Cc1c[nH]c2ccccc12)NC(=O)[C@H](CCC(N)=O)NC(=O)[C@@H](NC(=O)OC(C)(C)C)[C@@H](C)O)C(C)C)C(N)=O [XVIII, Boc-Thr-Gln-Trp-Ala-Val-Gly-Leu-Met-NH₂] (Boc-TQWAVGLM-NH2) | 1000 nM | – | –
CSCC[C@H](NC(=O)[C@@H](CC(C)C)NC(=O)[C@H](Cc1c[nH]cn1)NC(=O)CNC(=O)[C@@H](NC(=O)[C@H](C)NC(=O)[C@H](Cc1c[nH]c2ccccc12)NC(=O)[C@H](CCC(N)=O)NC(=O)[C@@H](N)[C@@H](C)O)C(C)C)C(N)=O [XXI, H-Thr-Gln-Trp-Ala-Val-Gly-His-leu-Met-NH₂.CF₃COOH] | 10000 nM | – | Grooming score ([2]; BBS 0.01 µg/rat + XXI 10 µg/rat in combination): 35; Grooming score ([2]; peptide XXI 10 µg/rat alone): 15
CCCCCNC(=O)[C@H](CC(C)C)NC(=O)[C@H](Cc1c[nH]cn1)NC(=O)CNC(=O)[C@@H](NC(=O)[C@H](C)NC(=O)[C@H](Cc1c[nH]c2ccccc12)NC(=O)[C@H](CCC(N)=O)NC(=O)[C@@H](N)[C@@H](C)O)C(C)C [XXVIII, H-Thr-Gln-Trp-Ala-Val-Gly-His-Leu-NH(CH₂)₄CH₃. 2CF₃COOH] (H-TQWAVGHL-NHPentyl) | 76 ± 30 nM | – | –
CC(C)C[C@H](NC(=O)[C@H](Cc1c[nH]cn1)NC(=O)CNC(=O)[C@@H](NC(=O)[C@H](C)NC(=O)[C@H](Cc1c[nH]c2ccccc12)NC(=O)[C@H](CCC(N)=O)NC(=O)[C@@H](NC(=O)OC(C)(C)C)[C@@H](C)O)C(C)C)C(N)=O [XXXIII, Boc-Thr-Gln-Trp-Ala-Val-Gly-His-Leu-NH₂] (Boc-TQWAVGHL-NH2) | 556 ± 128 nM | – | –
CSCC[C@H](NC(=O)[C@H](CC(C)C)NC(=O)[C@@H](C)NC(=O)CNC(=O)[C@@H](NC(=O)[C@H](C)NC(=O)[C@H](Cc1c[nH]c2ccccc12)NC(=O)[C@H](CCC(N)=O)NC(=O)[C@@H](NC(=O)OC(C)(C)C)[C@@H](C)O)C(C)C)C(N)=O [XXXIV, Boc-Thr-Gln-Trp-Ala-Val-Gly-ala-Leu-Met-NH₂] (Boc-TQWAVG[dA]LM-NH2) | 18200 nM | – | –
Boc-Thr-Gln-Trp-Ala-Val-Gly-His(Dnp)-Leu-NH₂ (Boc-TQWAVG[His(Dnp)]L-NH2; SMILES CC(C)C[C@H](NC(=O)[C@H](Cc1cn(-c2ccc([N+](=O)[O-])cc2[N+](=O)[O-])cn1)NC(=O)CNC(=O)[C@@H](NC(=O)[C@H](C)NC(=O)[C@H](Cc1c[nH]c2ccccc12)NC(=O)[C@H](CCC(N)=O)NC(=O)[C@@H](NC(=O)OC(C)(C)C)[C@@H](C)O)C(C)C)C(N)=O) [XXXII] | – | 770 ± 13 nM | –
Glp-Gln-Arg-Leu-Gly-Asn-Gln-Trp-Ala-Val-Gly-His-Leu-Met-NH₂ [BBS, reference compound] | – | 12.6 ± 3.8 nM | Grooming score ([2]; BBS 0.01 µg/rat alone): 55
H-Thr-Gln-Trp-Ala-Val-Gly-His(Dnp)-Leu-Met-NH₂ . HCl (TQWAVGH; His(Dnp)-Leu-Met-NH2 extension; HCl salt; printed: Thr-Gln-Trp-Ala-Val-Gly-His) [XXII] | – | 5,800 ± 750 nM | –
H-Thr-Gln-Trp-Ala-Val-Gly-His(Dnp)-Leu-NH(CH₂)₄ CH₃.CF₃COOH (H-TQWAVG[His(Dnp)]L-{NH(CH2)4CH3}; also: TFA salt) [XXVII] | – | 335 ± 101 nM | –
H-Thr-Gln-Trp-Ala-Val-Gly-His(Dnp)-leu-Met-NH₂ . HCl (H-TQWAVGH(Dnp); not fully specified (C-terminus); also: HCl salt) [XX] | – | 63,000 nM | –
KTQWAVGALM-NH2 [XXV, H-Lys-Thr-Gln-Trp-Ala-Val-Gly-Ala-Leu-Met-NH₂ . 2HCl] | 970 ± 4 nM | – | –
RTQWAVGALM-NH2 [XXVI, H-Arg-Thr-Gln-Trp-Ala-Val-Gly-Ala-Leu-Met-NH₂. 2CF₃COOH] | 200 ± 60 nM | – | –
TQWAVGFLM-NH2 [XXIII, H-Thr-Gln-Trp-Ala-Val-Gly-Phe-Leu-Met-NH₂.CF₃COOH] | 4700 nM | – | –
TQWAVGLM-NH2 [XIX, HCl. H-Thr-Gln-Trp-Ala-Val-Gly-Leu-Met-NH₂] | 3400 nM | – | –
TQWAVGSLM-NH2 [XXIV, H-Thr-Gln-Trp-Ala-Val-Gly-Ser-Leu-Met-NH₂.CF₃COOH] | 590 ± 130 nM | – | –
p-GRP: porcine gastrin releasing peptide (APVSVGGGTVLAKMYPRGNHWAVGHLM; ends and bridges not checked; UniProt P63153 24-50, looked up) [reference compound] | – | 17.6 ± 4.0 nM | –
